What was measured:
[1] = test system: α-synuclein, TNF-α and AGE-albumin in human microglial cells; format: cell-based; details: for expression level of α-synuclein or TNF-α in human microglial cells: PCR and immunoblotting; for expression level of AGE-albumin: irrespective of rotenone treatment
Method: Human microglial cells were cultured at 37° C. in DMEM (Gibco, 10% FBS (Gibco), 0.1% gentamicin (Gibco), a high concentration of glucose) at 37° C. in a 5% CO2 incubator. Then, the microglial cells were exposed to rotenone (Sigma, 1 nM), a causative agent of Parkinson's disease, for 10 days or to 6-hydroxydopamine (6-OHDA) for 24 hrs to prepare a cell model of Parkinson's disease.
α-Synuclein or TNF-α is present at a high level in the brain tissue of Parkinson's disease patients.

[2] = test system: AGE-albumin, RAGE, and Bax in mouse brain tissues; test: Rotenone mouse model, fluoroimmunostaining of AGE-albumin, RAGE and Bax in brain tissues; format: in vivo; details: versus rotenone alone; one week and one month
Method: (§2) The animal models of Parkinson's disease were anaesthetized with ketamine (0.75 mg/kg body weight) and rompun (0.2 mg/kg body weight) prior to surgical procedures. For in vivo treatments, phosphate buffered saline (PBS) and sRAGE (10 ng/μL) were dissolved at a concentration of 1 mM in sterile water and kept at 4° C. until use. The head was fixed on a stereotaxic instrument before a midline incision of the scalp skin was made. The skull was pierced with a biological electric drill at the bregma (posteriorly, 0.3 mm; laterally, 2 mm) and the needle (gauge 26) on a 10-μL Hamilton syringe was lowered vertically until it reached the target area (depth, 2.5 mm). Three microliters of sRAGE were injected slowly at the rate of 1 μL per minute with an automatic microinjector. Thereafter, the syringe was removed slowly and surgical wounds were sutured with wound clips followed by topical treatment with antibiotics. For control, PBS was injected into the entorhinal cortex of normal mice.
Most mice were bred for one week and one month after injection of sRAGE. During the breeding, oral administration of rotenone still continued. Afterwards, all mice were re-anaesthetized in the same manner, and perfused transcardially with 100˜200 mL of heparinized saline at 18° C. followed by 400 mL of 4% paraformaldehyde-lysine periodate in 0.1 M sodium phosphate buffer (pH, 7.4). […]

[3] = test system: rotenone-mediated neuronal cell death; test: Rotenone mouse model, number of neuronal cells in brain tissues (cresyl violet staining); format: in vivo; details: rotenone mice; for level of cell death in mouse brain tissues: substance injected into brain, one week and one month, compared to PBS
Method: CBL57/bL6 mice, each weighing 20-25 g, were used as experimental animals. The mice were maintained on a 12-h light-dark cycle, allowed to have access to food and water ad libitum, and acclimated for at least 1 week prior to usage. All animal experiments were approved by the Institute Animal Care and Use Committee, and were conducted humanely.
as §2
Most mice were bred for one week and one month after injection of sRAGE. During the breeding, oral administration of rotenone still continued. Afterwards, all mice were re-anaesthetized in the same manner, and perfused transcardially with 100˜200 mL of heparinized saline at 18° C. followed by 400 mL of 4% paraformaldehyde-lysine periodate in 0.1 M sodium phosphate buffer (pH, 7.4). The brains were removed, placed in the same fixative for 4 hrs at 4° C., and then transferred into ice-cold 0.1 M phosphate-buffered saline (PBS) containing 20% sucrose. […]
The relative levels of neurons in mouse brain tissues were evaluated by cresyl violet staining after PBS, rotenone, or rotenone/sRAGE administration for one week and one month before microscopy.

[4] = test system: AGE-albumin in human microglial cells (HMO6); test: Synthesis and secretion of AGE-albumin in human microglial cells (co-immunoprecipitation, ELISA, immunoblot); format: cell-based; details: for amount / expression level of AGE-albumin (immunoblot): 0˜1000 μM H2O2, ascorbic acid irrespective of Aβ1-42 treatment
Method: (§1) For in vitro studies, the immortalized human microglial cell line HMO6 was used. HMO6 cells were grown in Dulbecco's modified Eagle's medium (DMEM, Gibco) containing a high glucose concentration, supplemented with 10% heat-inactivated fetal bovine serum (FBS, Gibco) and […] gentamycin (Sigma-Aldrich). These cells were maintained at 37° C. under 5% CO2. HMO6 cells were exposed to Aβ1-42 (Sigma-Aldrich) at concentrations from 0 to 400 nM. HMO6 cells were then harvested 6 hrs after Aβ1-42 treatment for further analysis.
Whole human microglial cell lysates prepared before and after Aβ 1-42 treatment were subjected to immunoblotting analysis. In this regard, whole cell lysates from human microglial cells before and after treatment with 0˜400 nM Aβ 1-42 were prepared with a RIPA (radioimmunoprecipitation assay) buffer containing 1 M Tris (pH 7.5), 5 M NaCl, 10% NP-40, 10% deoxycholate and a protease inhibitor cocktail (Calbiochem). All cell lysates (1 mg protein) were incubated overnight at 4° C. with 5 mg of anti-AGE (Abcam)-conjugated sepharose beads in […] of PBS. The sepharose beads were precipitated by centrifugation at 14,000 rpm for 5 min, and washed three times with 1 mL of washing buffer containing 50 mM Tris-Cl and 500 mM NaCl (pH 8.0). The IgG-bound antigen-antibody complex was resolved on a 4-12% polyacrylamide gel (Invitrogen), followed by immunoblot analysis with the respective antibodies (1:1000, Abcam).
After removal of already synthesized albumin by use of an anti-albumin antibody, intracellular and extracellular (secreted into culture media) levels of AGE-albumin were measured using ELISA. For this, human microglial cells were treated with 0-400 nM Aβ1-42, after which the culture media (0.1 mg protein) were harvested. Separately, the cells were lyzed to prepare cell lysates (0.5 mg protein). […] Following the addition of HRP-conjugated anti-mouse secondary antibody (1:1000, Vector Laboratories) to each well, color was developed with TMB (3,3′,5,5′-tetramethylbenzidine), and reaction was stopped with an equal volume of 2 M H2SO4. Absorbance at 450 nm was read on an ELISA plate reader (VERSA Max, Molecular Devices).
Aβ1-42 is known to accumulate over a long period of time by oxidative stress.

[5] = test system: AGE-albumin in human microglial cells; test: AGE-albumin in human microglial cell model of stroke (oxygen and glucose deprivation); format: cell-based; details: for amount / expression level of AGE-albumin in stroke model cells (immunoblot): 0˜1000 μM H2O2, ascorbic acid irrespective of hypoxia and glucose deprivation; for expression level of AGE-albumin in stroke model cells: 0, 50, 200, 500, 2000 ng/mL, hypoxic and glucose-deprived
Method: Human microglial cells were cultured at 37° C. in DMEM (Gibco, 10% FBS (Gibco), 0.1% gentamicin (Gibco), a high concentration of glucose) at 37° C. in a 5% CO2 incubator. Then, the microglial cells were exposed to glucose-free DMEM for 1 hr within a hypoxic (5% CO2 and 95% N2) chamber (Billups-Rothenberg, Del Mar, Calif.) to prepare a cell model of stroke.
Human microglial cell models of stroke were treated with HMGB1, which is known to secrete most abundantly upon stroke to excite microglial cells. Expression levels of AGE-albumin in the human microglial cell model of stroke were quantitated at various concentrations (0, 50, 200, 500, 2000 ng/mL) of HMGB1 using immunohistochemistry (IHC), ELISA, and immunoblotting.
A Human microglial cell model of stroke was exposed to various concentrations (0, 50, 200, 500, 2000 ng/mL) of the HMGB1 inhibitor glycyrrhizic acid, and quantitatively analyzed for AGE-albumin using ELISA and immunoblotting.

[6] = test system: AGE-albumin in mouse blood monocytes; test: AGE-albumin in mouse blood monocytes (immunostaining); format: cell-based; details: compared to non-treated cells
[7] = test system: AGE-albumin in human microglial cells and rat brain tissues; test: Distribution and density of AGE-albumin after Aβ1-42 treatment (immunostaining, confocal microscopy); format: cell-based
Method: as §1
Cells were grown on Lab-Tek II slide chambers (Nunc), rinsed with PBS, fixed in methanol for 15 min, and rinsed again with PBS. […] After washing the secondary antibodies with PBS three times at regular intervals of 10 min, coverslips were mounted onto glass slides using the Vectashield mounting medium (Vector Laboratories), and examined under a laser confocal fluorescence microscope (LSM-710, Carl Zeiss).
Immunohistochemistry was conducted on murine brain tissues from normal or Alzheimer's disease rats, and human brain tissues from normal adults and Alzheimer's disease individuals [S. M. Ahn et al., PLoS ONE 3, e2829 (2008)]. […] After washing the secondary antibodies three times with PBS, coverslips were mounted onto glass slides using the Vectashield mounting medium (Vector Laboratories), and observed under a laser confocal fluorescence microscope (LSM-710, Carl Zeiss). […]

In the case of `NCCc1cc(O)c(O)cc1O` [6-hydroxydopamine], the “expression level of α-synuclein or TNF-α in human microglial cells” value [1] is reported as “increased”.

`N[C@@H](C(=O)N[C@@H]1C(=O)N2C(C(=O)O)=C(Cl)CS[C@H]12)c1ccccc1` [C-20, Cefaclor] was tested, and the “AGE, albumin, Iba1, AGE-albumin, RAGE, and Bax expression / positive cells in mouse brain tissues” value [2] was “reduced”, the “level of cell death in mouse brain tissues” value [3] was “significantly reduced level of cell death” and the “number of neurons in the injected region versus the non-injected region” value ([3]; predominant recovery in the substantia nigra) was “higher number of neurons”.

`CC(=O)OCC1=C(C(=O)O)N2C(=O)[C@@H](NC(=O)Cc3cccs3)[C@H]2SC1` [C-21, Cephalothin sodium] was tested, and the “AGE, albumin, Iba1, AGE-albumin, RAGE, and Bax expression / positive cells in mouse brain tissues” value [2] was “reduced” and the “level of cell death in mouse brain tissues” value [3] was “significantly reduced level of cell death”.

`O=C1O[C@H]([C@@H](O)CO)C(O)=C1O` [ascorbic acid] was tested, and the “amount / expression level of AGE-albumin (immunoblot)” value [4] was “drastically reduced”, the “expression level of AGE-albumin” value [1] was “drastically reduced” and the “amount / expression level of AGE-albumin in stroke model cells (immunoblot)” value [5] was “drastically reduced”.

`C=C1[C@@H](C)[C@H]2[C@H](Cc3ccccc3)NC(=O)[C@]23[C@H](OC(C)=O)/C=C/[C@@](C)(O)C(=O)[C@@H](C)C/C=C/[C@H]3[C@@H]1O` [cytochalasin D] was tested, and the “expression level of AGE-albumin” value [1] was “drastically reduced”.

In the case of `CC1(C)[C@@H](O[C@H]2O[C@H](C(=O)O)[C@@H](O)[C@H](O)[C@H]2O[C@@H]2O[C@H](C(=O)O)[C@@H](O)[C@H](O)[C@H]2O)CC[C@]2(C)[C@H]3C(=O)C=C4[C@@H]5C[C@@](C)(C(=O)O)CC[C@]5(C)CC[C@@]4(C)[C@]3(C)CC[C@@H]12` [glycyrrhizic acid], the “expression level of AGE-albumin in stroke model cells” value [5] is reported as “significantly decreased with an increase in the concentration”.

`OO` [hydrogen peroxide] was tested, and the “amount / expression level of AGE-albumin (immunoblot)” value [4] was “increased in a concentration-dependent manner”, the “amounts of both α-synuclein and AGE-albumin” value ([1]; sequentially exposed to rotenone and H2O2 0˜1000 μM) was “increased in a concentration-dependent manner” and the “amount / expression level of AGE-albumin in stroke model cells (immunoblot)” value [5] was “increased in a concentration-dependent manner”.

For `C=C(C)[C@H]1Cc2c(ccc3c2O[C@@H]2COc4cc(OC)c(OC)cc4[C@@H]2C3=O)O1` [rotenone], the “expression level of AGE-albumin in both cell lysate and cell culture medium” value ([1]; 1 nM rotenone) was “increased” and the “expression level of α-synuclein or TNF-α in human microglial cells” value [1] was “increased”.

In the case of “Aβ1-42: amyloid beta 1-42 (Sigma-Aldrich), activator of microglial cells”, the “expression level of AGE-albumin in human microglial cells (co-immunoprecipitation)” value ([4]; 0˜400 nM Aβ1-42) is reported as “increased with an increase in the concentration”, the “level of AGE-albumin in human microglial cell lysates (ELISA)” value ([4]; compared to non-treated lysates) is reported as “significant increase” and the “expression level of AGE-albumin in mouse blood monocytes” value [6] is reported as “higher expression level”. The “expression level of AGE-albumin (immunostaining)” value ([7]; human microglial cells and rat brain tissue (cerebral cortex) after exposure to Aβ1-42) was “remarkable elevation” and the “densities of AGE-albumin” value ([7]; microglial cells and rat brain tissues after versus before Aβ1-42 treatment) was “remarkably higher”.

B1: HMGB1: high motility group protein B1, excites microglial cells upon stroke (protein, UniProt P09429 1-215, looked up)
High mobility group protein B1: MGKGDPKKPRGKMSSYAFFVQTCREEHKKKHPDASVNFSEFSKKCSERWKTMSAKEKGKFEDMAKADKARYEREMKTYIPPKGETKKKFKDPNAPKRPPSAFFLFCSEYRPKIKGEHPGLSIGDVAKKLGEMWNNTAADDKQPYEKKAAKLKEKYEKDIAAYRAKGKPDAAKKGVVKAEKSKKKKEEEEDEEDEEDEEEEEDEEDEDEEEDDDDE
With B1 the “expression level of AGE-albumin in stroke model cells” value [5] was “significantly increased with an increase in the concentration”.

Reference: patent publication US9662347B2, “Method for inhibiting the induction of cell death by inhibiting the synthesis or secretion of age-albumin in cells of the mononuclear phagocyte system” (Gachon University of Industry-Academic Cooperation …, priority 2010, dated 2017)
